Read-outs that look alike come from different tables or passages of the source.
How the values were obtained:
[1] = Core loading of phototherapeutic agent into micelles; assay type: physicochemical; conditions: poly(p-hydroxystyrene) core; shown previously
Protocol: Core loading was achieved by addition of MP-3397 stock solution (in DMF) into aqueous micelle solution followed by removal of organic solvent through dialysis. Alternatively, MP-3397 stock solution incubated with block copolymer (both in DMF) underwent co-assembly upon addition of water followed by dialysis. In an example, poly(p-hydroxystyrene) core achieved maximum of 5 wt % core loading whereas polystyrene core achieved ca. 15 wt %.

KB cells = experiment: EST-1 cell viability assay using KB cells (cell cytotoxicity); assay type: cell-based; conditions: Homo sapiens
Protocol: Table 3 provides 1050 data for the EST-1 cell viability assay using KB cells with 2 hour treatment with the particles described above. […] HPLC and MS analyses were in agreement with the determination of PTX concentration.
Table 5 provides results of cell cytotoxicity 1050 data for the EST-1 cell viability assay using KB cells with the particles described above. “ND” means not determined.

[2] = DOX release experiments from dialysis cassette, Higuchi fit and f1/f2 profile comparison; assay type: physicochemical; conditions: at either pH value (5.0 or 7.4)
Protocol: General procedure for the DOX release experiments: To a presoaked dialysis cassette (Slide-A-Lyzer, 10 kDa MWCO, Pierce Biotechnology, Rockford Ill., USA) was added ca. 7 mL of the DOX-loaded SCK or SC-rod solution. The cassette was stirred in a beaker containing 4 L of 5 mM PBS at pH 5.0 or 7.4 and 37° C. for a period of 52 hrs. Samples (ca. 1 mL) were removed from the cassette at 0, 1, 2, 3, 5, 7, 9, 15, 21, 27, 39 and 52 h and analyzed by UV-vis spectroscopy (488 nm, ε=13050 M^−1 cm^−1) and injected back to the cassette immediately after the analysis. DOX release data points were then fitted to a third order polynomial equation.
DOX-SCR or DOX-SCK (ca. 4 mL) was transferred to a presoaked dialysis cassette (Slide-A-Lyzer, 10 kDa MWCO, Pierce Biotechnology, Rockford Ill., USA). […] Samples (ca. 1.5 mL) were removed from the cassette at 0, 1, 2, 4, 6, 9, 12, 18, 24, 30, 40, 50 and 60 h, analyzed by UV-vis (488 nm, 6=12500 M^−1cm^−1 determined by a calibration curve in PBS), and then returned to the cassette. […]
To further quantitatively understand the differences and similarities in DOX release profiles, model-independent methods were used to calculate f1, the difference factor, and f2, the similarity factor (F. O. Costa, J. J. S. Sousa, A. Pais, S. J. Formosinho, J. Controlled Release 2003, 89, 199; J. W. Moore, H. H. Flanner, Pharm. Tech. 1996, 20, 67.): […]

Molecule: Oc1c(I)cc(I)c(-c2c(I)cc(I)c(O)c2I)c1I [MP-4089]
- core loading [1]: 15 wt %

Molecule: CC(=O)O[C@H]1C(=O)[C@@]2(C)[C@H]([C@H](OC(=O)c3ccccc3)[C@]3(O)C[C@H](OC(=O)[C@H](O)[C@@H](NC(=O)c4ccccc4)c4ccccc4)C(C)=C1C3(C)C)[C@]1(OC(C)=O)CO[C@@H]1C[C@@H]2O [Paclitaxel, paclitaxel]
- IC50 (KB cells; 2 hr treatment, 60 nm particles, read-out: PTX 2 hr IC50): 0.05 µM
- IC50 (KB cells; 72 hr, 60 nm particles, read-out: PTX 72 hr IC50): 0.007 µM
- IC50 (KB cells; after one day of loading, 10 nm vs. 20 nm particles, read-out: 2 hr IC50): 0.045 µM
- IC50 (KB cells; after two weeks of loading, 10 nm vs. 20 nm particles, read-out: 72 hr IC50): 0.002 µM

Molecule: doxorubicin [free DOX]
- time to complete release from the dialysis cassette [2]: ≤ 4 h
- DOX release from the dialysis cassette ([2]; in 3 h): 95%
